The results in this text go back to patent publication US7482371B2, “N-phenylbenzamide derivatives as drugs for the treatment of COPD” (Rottapharm S.p.A., priority 2004, dated 2009).

Assay [1] concerns newborn rat cultured DRG neurons. Description: [Ca2+]i mobilization in cultured DRG neurons (Fura-2). It is filed as cell-based. As to the method: Dorsal root ganglia (DRG) were removed from 1-3 days old rats and dissociated into single cells according to well established procedures. Cells, plated on coated glass coverslips were loaded with Fura-2-AM-ester to detect relative intracellular calcium ([Ca^2+]i) changes.
During the Ca^2+ fluorescence the cells were excited with electrical stimulation (10 Hz, 1 ms, 0.40 mA/cm^2 for 10 sec) twice with a resting period between each stimulation of 20 min. These experiments were performed in the presence or absence of 100 nM charybdotoxin.

The test system of assay [2] is slices of rat dorsal spinal cord. Description: CGRP-LI outflow from slices of rat dorsal spinal cord (EIA). Type of assay: cell-based. As to the method:
(§1) Slices of guinea pig trachea and bronchi or of rat dorsal spinal cord were prepared and transferred to perfusion chambers and perfused. After an equilibration period, samples were collected before, during and after the delivery of an excitatory stimulus (KCl 80 mM). The effect of Andolast was compared with the effect of its vehicle. CGRP-like immunoreactivity (GCRP-LI) was measured by enzyme immunoassay (EIA).
In the rat dorsal spinal cord the experiments with Andolast were performed also in the presence of 100 nM charybdotoxin.

Assay [3] has as its system human B lymphocytes from allergic donors. In words: IL-4 dependent IgE synthesis by human B lymphocytes. It is filed as cell-based.
The test system of assay [4] is slices of guinea pig airways. Description: CGRP-LI outflow from slices of guinea pig airways (EIA). It is filed as cell-based. The method, then: as §1
For assay [5], the system named is guinea pig isolated bronchial rings. Description: eNANC contractile response of isolated guinea pig bronchial rings. Type of assay: cell-based. The method, then:
Guinea pig bronchial rings were mounted in organ baths. After an equilibration period the eNANC contractile response to EFS (5 Hz, 20 sec, 0.5 ms pulse width at 40 V) in the presence of atropine (1 μM) was studied. The effects of Andolast or its vehicle on the eNANC were studied in parallel experiments in the presence or absence of 100 nM charybdotoxin. The ability of Andolast to affect the direct bronchoconstrictor activity of SP was also studied.

In a further assay the test system is T lymphocytes (Th2). In words: Treatment course in atopic mild-moderate asthmatic patients. It is filed as in vivo, human. The following applies: standard treatment course.

By inhibition is commonly meant the drop in the measured response relative to a control, in per cent. Take `O=C(Nc1ccc(-c2nn[nH]n2)cc1)c1ccc(-c2nn[nH]n2)cc1` [Andolast, N-4-(1H-tetrazol-5-yl)phenyl-4-(1H-tetrazol-5-yl)benzamide]: in assay [1] (100 nM charybdotoxin (ChTX)), the “inhibitory effect on EFS-induced [Ca2+]i mobilization in presence of charybdotoxin” value is “completely reversed”. The “response to capsaicin ([Ca2+]i)” value in assay [1] (capsaicin 0.1 μM, pretreatment with Andolast 10 μM) is reported as “not affected”. In assay [1] (pre-treatment with Andolast 10 μM or its vehicle), the “mobilization of [Ca2+]i in response to ionomycin” value is given as “similar”. The “response to EFS ([Ca2+]i mobilization)” value in assay [1] (pretreatment with Andolast compared to vehicle, EFS 10 Hz, 1 ms, 0.40 mA/cm2 for 10 sec) is reported as “diminished the response to EFS”. Also, the “inhibition of high K+ induced CGRP-LI outflow in presence of charybdotoxin” value in assay [2] (100 nM charybdotoxin) was “completely abrogated”. The “maximum inhibition of the outflow of CGRP-LI induced by high K+ medium” value in assay [2] (Andolast 1 μM, KCl 80 mM) is recorded as 48 % of vehicle. For the same compound, in assay [2] (Andolast 0.1-1 μM, rat dorsal spinal cord slices), the “outflow of CGRP-LI (without stimulus)” value is listed as “did not cause any significant increase”. In addition, the “outflow of CGRP-LI induced by high K+ medium” value in assay [2] (KCl 80 mM, rat dorsal spinal cord slices) is recorded as “concentration-dependent inhibition”. In assay [3], the “IL-4 dependent IgE synthesis” value is on record as “potent inhibitory effect”. Moreover, the “outflow of CGRP-LI (without stimulus)” value in assay [4] (Andolast 0.1-1 μM, guinea pig airway slices) is given as “did not cause any significant increase”. Besides, in assay [4] (Cavia porcellus, Andolast 1 μM, KCl 80 mM, read-out: inhibition of the CGRP-LI outflow induced by high K+ medium), the inhibition at 1 µM was determined as 67%. For the same compound, the “contractile response to SP” value in assay [5] (Andolast 10 μM) is reported as “did not affect”. In addition, in assay [5] (Cavia porcellus, 10 μM Andolast, atropine 1 μM, read-out: maximum inhibition of the contractile response to EFS), the inhibition at 10 µM amounted to 45%. Moreover, in assay [5] (charybdotoxin 0.1 μM), the “effect on EFS contraction in presence of charybdotoxin” value is “completely abrogated”. Further, the “contractile response to EFS (eNANC)” value in assay [5] (in the presence of atropine (1 μM), pretreatment with Andolast) is reported as “diminished dose-dependently”. Further, in the assay on T lymphocytes (Th2), the “T lymphocytes (Th2) production of IL-5” value is recorded as “inhibitory effect” and the “percentage of eosinophils in the sputum” value is reported as “decrease”.
